Data from patent US10716783B2, “Prolylhydroxylase/ATF4 inhibitors and methods of use for treating neural cell injury or death and conditions resulting therefrom” (CORNELL UNIVERSITY, priority 2013, dated 2020).
Entries after “also recorded” stand apart in the source; their conditions may differ. Read-outs that look alike come from different tables or passages of the source.

How the values were obtained:
[1] = system: HIF-1 protein; assay: HIF-1 protein stabilisation in primary neurons (Western blot); assay type: cell-based; conditions: FIG. 6H, 6I
From the text: FIGS. 1A-1L: Structurally diverse HIF PHD inhibitors stabilize HIF-1 and abrogate toxicity induced by hemin, a byproduct of blood breakdown, in cortical neurons hippocampal neuroblasts and striatal neuroblasts (not shown). […] FIGS. 6A-6I. […] Expression of ATF4 was forced into primary neurons, which induces death of these neurons by MTT assay (FIG. 6D) or LIVE/DEAD staining, Green is live, Red is dead (FIG. 6E).

[2] = system: ATF4; assay: ATF4 dependent gene expression under oxidative stress in neurons (microarray, qPCR, promoter occupancy); assay type: cell-based
From the text: FIGS. 5A-5G. […] Because adaptoquin is a HIF PHD inhibitor that appears to work independent of HIF transcription factors, and because hemin induced death involves oxidative stress, the effect of adaptoquin on oxidative glutamate toxicity was examined. This form of toxicity is observed in primary cortical neurons from E17 rat embryos (2 DIV) and involves glutamate mediated inhibition of the amino acid cystine via its plasma membrane transporter. […] Accordingly, the optimal concentration of adaptoquin in protecting neurons was first determined and found to be about 1 micromolar. […] To determine the mechanism of adaptoquin, transcriptomic experiments were performed using non-protective and protective concentrations of drug harvesting RNA just prior to the time the cell's becoming insensitive to adaptoquin (16 hrs), as provided in FIG. 5C.
(§1) FIGS. 6A-6I. […] Expression of ATF4 was forced into primary neurons, which induces death of these neurons by MTT assay (FIG. 6D) or LIVE/DEAD staining, Green is live, Red is dead (FIG. 6E).
To probe the mechanism of adaptoquin-induced neuroprotection, the study moved its attention to a well established model of oxidative stress in neurons induced by glutamate. Like hemin induced toxicity, oxidative glutamate toxicity is abrogated by forced expression of GPX4 (Alim et al., unpublished observations). However, oxidative glutamate toxicity has a much longer window before cells are committed to die (eighteen hours), facilitating analysis of primary events involved in cell death and protection. A detailed dose response and therapeutic window study was performed with adaptoquin in mouse cortical neurons exposed to glutamate or the glutamate analog, homocysteate. […] To probe the mechanism of this potent, delayed protection, a microarray transcriptomics study was performed using RNA from neuronal cultures that had been exposed to glutamate (or HCA) for 16 hours with vehicle, as well as non-protective (100 nM) and protective doses of adaptoquin (1 μM). […]

[3] = system: primary neurons; assay: Death induced by forced ATF4 expression in primary neurons (MTT, LIVE/DEAD); assay type: cell-based; conditions: concentrations protective in the oxidative stress model
From the text: as §1

[4] = system: ATF4; assay: ATF4 hydroxylation (ATF4 immunoprecipitation, hydroxyproline immunoblot); assay type: cell-based
[5] = system: intracerebral hemorrhage (collagenase into the striatum); assay: Collagenase-induced ICH in mice; assay type: in vivo; conditions: for Corner task (spatial neglect): 30 mg/kg i.p. 2 h post collagenase then daily for seven days; for Tape removal task (sensory neglect): 1 and 3 days post ICH; for Neuronal degeneration (Fluoro-jade staining), striatum hematoma and perihematomal area: day 7
Protocol: FIGS. 4A-4N. Adaptoquin delivered post-injury reduces cell death and enhances functional recovery post injury in mice and rats. Adaptoquin's effects in mice are not associated with global shifts of iron out of the brain. FIG. 4A: Experimental design for schedule of delivery of adaptaquin post-ICH. 30 mg/kg was delivered post-injury and then daily for seven days during which behavioral analysis was done. Mice were sacrificed at day 7 for qPCR and Fluoro-jade staining. […] FIG. 4J: Protocol for adaptoquin treatment of rats with ICH. ICH is modeled by autologous blood infusion and not collagenase in these studies. Behavior is tracked by a single pellet reaching task out to 28 days, but the schedule of infusion is similar to what is used in mice-2 hrs post blood infusion and then daily out to seven days. Behavior is monitored before, from 9-11 days and from 25-28 days. […] FIG. 4L: Protocol for evaluating the total concentrations of iron and zinc in brain following ICH in vehicle and adaptoquin treated mice. FIGS. 4M, 4N: Pseudocolored sections of collagenase induced ICH in mice after 7 days. […] These studies are consistent with the notion that adaptoquin works by inhibiting a specific metalloenzyme rather than global movement of metal ions. To determine whether HIF PHD inhibition after ICH can improve behavioral outcomes, 30 mg/kg of adaptoquin was delivered to the peritoneum of mice two hours following the injection of collagenase into the striatum. An identical dose of adaptoquin (30 mg/kg) was given daily for seven days. […] These molecular deletion and pharmacological inhibition studies supported HIF PHDs as targets for therapy post ICH, but left unanswered the mechanism by which adaptoquin could abrogate neuronal death. A first prediction of the model was that adaptoquin enhances functional recovery without affecting total brain iron levels. Total iron levels were monitored in brain sections from vehicle- and adaptoquin-treated (30 mg/kg) mice seven days following ICH.

[6] = biological target: recombinant HIF PHD2 (Homo sapiens, UniProt Q9GZT9); assay: Recombinant HIF PHD2 hydroxylation of HIF peptide, non-denaturing mass spectrometry; assay type: biochemical
Chain of recombinant HIF PHD2 (Q9GZT9 whole entry, the tested form may be a part): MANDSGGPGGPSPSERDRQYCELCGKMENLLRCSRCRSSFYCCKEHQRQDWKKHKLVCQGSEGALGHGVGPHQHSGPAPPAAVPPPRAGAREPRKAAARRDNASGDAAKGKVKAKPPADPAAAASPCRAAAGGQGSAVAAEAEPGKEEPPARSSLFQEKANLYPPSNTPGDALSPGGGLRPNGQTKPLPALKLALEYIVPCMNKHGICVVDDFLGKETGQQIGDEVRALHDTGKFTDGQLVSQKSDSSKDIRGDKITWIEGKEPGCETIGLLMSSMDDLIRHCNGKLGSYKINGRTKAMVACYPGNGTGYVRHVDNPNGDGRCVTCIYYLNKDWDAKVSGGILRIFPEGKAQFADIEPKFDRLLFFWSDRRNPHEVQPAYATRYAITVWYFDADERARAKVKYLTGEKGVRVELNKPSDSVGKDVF
From the text: FIGS. 3A-3G. Validation of adaptoquin as a novel HIF PHD inhibitor. […] Under steady state conditions, activity of HIF PHD2 with its co-substrate 2-oxoglutarate involves two peaks that represent non-hydroxylated and hydroxylated peptide. The hydroxylated peptide disappears in the presence of HIF PHD2 inhibition by adaptoquin. […] The reporter contains the ODD domain of HIF-1 which confers HIF PHD regulated stability on it. It is expressed in all cells of the body, but is destabilized in the absence of HIF PHD inhibition and stabilized in its presence. Quantitative measurements confirm stability of the ODD-luc in brain, kidney and liver (FIGS. 3D and 3E.).
To verify that the changes in light in the brain reflect parenchymal changes in ODD-luciferase levels rather than increases in changes in skin or dural ODD-luciferase, ODD-luciferase activity was measured normalized to total protein in lysates from distinct brain regions using a luminometer.

Oc1cccnc1NC(c1ccc(Cl)cc1)c1ccc2cccnc2c1O (centres unmarked) [adaptoquin]
HIF-1 stabilisation relative to protective concentration [1]: stabilizes HIF-1 at concentrations higher than that required for full protection | Oxidative stress and ATF4 dependent induction of Trb3 ([2]; 1 micromolar): abrogates oxidative stress and ATF4 dependent induction of Trb3 | ATF4 occupancy at the promoter of Trib3 ([2]; oxidative stress): abrogates oxidative stress induced ATF4 occupancy | Expression of ATF4 dependent genes (Trib3, MTHFR2, SCL7A11, STC2) ([2]; protective doses (1 μM), quantitative PCR / microarray): significantly reduces expression of ATF4 dependent genes; also recorded: downregulation of ATF4 dependent genes | Death induced by oxidative stress and ATF4 forced expression [3]: mitigates death induced by oxidative stress and ATF4 forced expression | ATF4 hydroxylation [4]: inhibits ATF4 hydroxylation | Corner task (spatial neglect) [5]: significantly normalized | Corner task (spatial neglect) ([5]; listed as Adaptoquin): corrects behavioral deficits | Tape removal task (sensory neglect) ([5]; 30 mg/kg i.p.): significant improvement | Tape removal task (sensory neglect) ([5]; 30 mg/kg i.p., listed as Adaptoquin): corrects behavioral deficits | Hematoma size ([5]; 30 mg/kg i.p., at 24 hours): no difference | Edema ([5]; 30 mg/kg i.p., at three days): did decrease edema | Neuronal degeneration (Fluoro-jade staining), striatum hematoma and perihematomal area ([5]; 30 mg/kg i.p.): reduction in the number of degenerating neurons | Neuronal degeneration (Fluoro-jade staining), striatum hematoma and perihematomal area ([5]; 30 mg/kg i.p., listed as Apatoquin): significantly reduces neuronal degeneration | p21 expression ([5]; 30 mg/kg post-ICH then daily for seven days, qPCR day 7): induced p21 expression | Inhibition of recombinant HIF PHD2 activity (hydroxylation of HIF peptide) [6]: inhibit the ability of recombinant HIF prolyl hydroxylase 2 to hydroxylate an HIF peptide | Inhibition of recombinant HIF PHD2 activity (hydroxylation of HIF peptide) ([6]; listed as Adpatoquin): inhibits activity of recombinant HIF PHD2
